One data set has as its target trans-sialidase (TcTS). The settings on record: literature, cited from earlier work; for inhibition of trans-sialidase: in words.
Data set [1] is described as follows: Preliminary cytotoxicity assay, resazurin. The settings on record: human MRC-5 cell line, 3 days incubation. The format is cell-based. On the procedure: MRC-5SV2 cell cytotoxicity was assessed following the methodology outlined in earlier literature. Briefly, cells at a concentration of 1.5 × 10^5 cells/mL were cultured with compound dilutions at 37 °C and 5% CO2. Cell growth was compared to untreated-control wells (100% cell growth) and medium-control wells (0% cell growth). After 3 days of incubation, cell viability was fluorometrically assessed following the addition of 50-μL resazurin per well. Fluorescence was measured after 4 h at 37 °C (λex 550 nm, λem 590 nm). The results were expressed as the percentage reduction in cell growth/viability compared to control wells, and an IC50 value was determined.
In general terms: Resazurin is reduced to fluorescent resorufin, in cell work by metabolically active cells.

In data set [2] the test system is T. cruzi Tulahuen CL2 β-galactosidase strain. The data set can be described thus: Antitrypanosomal screening, anti-T. cruzi (trypomastigote) activity, CPRG photometric method. The format is cell-based. The settings on record: Trypanosoma cruzi; Tulahuen CL2 β-galactosidase strain on MRC-5SV2; values in parentheses mean ± SEM of two experiments. As to the method:
A preliminary assay was conducted to evaluate the analogs’ in vitro cytotoxicity and antitrypanosomatid activity against T. cruzi Tulahuen strain (Table ). […] However, the promising results of analog 16 encouraged us to conduct more in-depth studies on this compound.
Anti-parasitic assays were conducted following established protocols outlined in earlier literature. In brief, for assessing anti-T. cruzi activity, the Tulahuen CL2 β-galactosidase strain (nifurtimox-sensitive) was employed and maintained on MRC-5SV2 (human lung fibroblast). A total of 4 × 10^3 cells were infected with 4 × 10^4 parasites per well. The synthesized analogs were tested at concentrations ranging from 1.56 to 50.00 μM. Parasite burdens were evaluated after the addition of the substrate CPRG (chlorophenol red ß-D-galactopyranoside). The change in color was measured spectrophotometrically at 540 nm after 4 h of incubation at 37°C. In all assays, parasite growth was compared to untreated-infected controls (100% growth) and noninfected controls (0% growth). Results were expressed as the percentage of parasite reduction at different drug concentrations and used to calculate IC50 values from the dose–response curves.

A short description of data set [3]: Cytotoxicity against primary mouse macrophages. The format is cell-based. The text has this: 1 In Vitro Anti- T. cruzi (Trypomastigote) Activity and Cytotoxicity Assessment of Hit 1 Analogs ^a | column: PMM CC50 (μM)
[4] abbreviates: mouse, primary mouse macrophages (PMM).

Like-named read-outs stand apart in the source and are kept apart here.

What is called IC50 is the midpoint of a concentration-inhibition curve. As for `OC[C@@H](O)[C@@H](O[C@@H]1O[C@H](CO)[C@H](O)[C@H](O)[C@H]1O)[C@H](O)[C@@H](O)CO` [lactitol], the half-inhibitory concentration (IC50) at trans-sialidase (TcTS) (acceptor analog) was 570 µM.
Usually CC50 stands for the concentration giving 50% cytotoxicity. Take `O=[N+]([O-])c1ccc(Cn2cc(-c3ccc([N+](=O)[O-])cc3)nn2)cc1` [Compound 24, 1-(4-Nitrobenzyl)-4-(4-nitrophenyl)-1H-1,2,3-triazole]: in data set [1], the half-maximal cytotoxic concentration (CC50) at 3 days was over 50 µM. In addition, the IC50 in data set [2] is over 50 µM. Also, in data set [3] (primary mouse macrophages, read-out: PMM CC50), the CC50 was over 50 µM.
Turning to `CCOC(=O)C1=C[C@@H](OC(CC)CC)[C@H](NC(C)=O)[C@@H](N)C1` [Oseltamivir], the inhibition of trans-sialidase entry with trans-sialidase (TcTS) is “weak inhibition of trans-sialidase in the millimolar range”.
For the compound `O=C(Cn1cc(-c2ccc([N+](=O)[O-])cc2)nn1)NCc1ccccn1` [Compound 10, 2-(4-(4-Nitrophenyl)-1H-1,2,3-triazol-1-yl)-N-(yridine-2-ylmethyl)acetamide], in data set [1] (MRC-5SV2 lung fibroblast cells), the cytotoxic concentration (CC50) at 3 days was over 50 µM. The IC50 in data set [2] is over 50 µM. This compound also returned a CC50 in data set [3] (setting [4]) of over 50 µM.
Consider `CC(=O)NC1C(O)C(F)C(F)(C(=O)O)OC1C(O)C(O)CO` (stereo not shown) [2,3-difluorosialic acid], for which, on trans-sialidase (TcTS) (irreversible inhibitors), the Ki was 20000 µM.
`O=C(O)c1ccc(Cn2cc(-c3ccc([N+](=O)[O-])cc3)nn2)cc1` [Compound 18, 4-((4-(4-Nitrophenyl)-1H-1,2,3-triazol-1-yl)methyl)benzoic Acid] gave a 50% cytotoxic concentration (CC50) at 3 days in data set [1] (MRC-5SV2 lung fibroblast cells) of over 50 µM. The IC50 in data set [2] is over 50 µM. Besides, the cytotoxic concentration (CC50) in data set [3] (setting [4]) is over 50 µM.
As to `O=C(O)Cn1cc(-c2ccc([N+](=O)[O-])cc2)nn1` [Compound 17, 2-(4-(4-Nitrophenyl)-1H-1,2,3-triazol-1-yl)acetic Acid], the 50% cytotoxic concentration (CC50) at 3 days in data set [1] (MRC-5SV2 lung fibroblast cells) is over 50 µM. Besides, the IC50 in data set [2] was over 50 µM. The 50% cytotoxic concentration (CC50) in data set [3] (setting [4]) is over 50 µM.
`N#Cc1ccc(Cn2cc(-c3ccc([N+](=O)[O-])cc3)nn2)cc1` [Compound 15, 4-((4-(4-Nitrophenyl)-1H-1,2,3-triazol-1-yl)methyl)benzonitrile] showed a half-maximal cytotoxic concentration (CC50) at 3 days in data set [1] (MRC-5SV2 lung fibroblast cells) of over 50 µM. Further, in data set [2], the IC50 was over 50 µM. In data set [3] (setting [4]), this compound returned a CC50 of over 50 µM.
With `N#Cc1ccc(CNC(=O)Cn2cc(-c3ccc([N+](=O)[O-])cc3)nn2)cc1` [Compound 13, N-(4-Cyanobenzyl)-2-(4-(4-nitrophenyl)-1H-1,2,3-triazol-1-yl)acetamide], in data set [1] (MRC-5SV2 lung fibroblast cells), the cytotoxic concentration (CC50) at 3 days is over 50 µM. In data set [2], the half-maximal inhibitory concentration (IC50) is over 50 µM. Besides, the CC50 in data set [3] (setting [4]) is 35.4 µM.
Consider `O=[N+]([O-])c1ccc(Cn2cc(-c3ccccc3CO)nn2)cc1` [Compound 27, (2-(1-(4-Nitrobenzyl)-1H-1,2,3-triazol-4-yl)phenyl)methanol], for which the 50% cytotoxic concentration (CC50) at 3 days in data set [1] (MRC-5SV2 lung fibroblast cells) was over 50 µM. Besides, in data set [2], the IC50 is over 50 µM. This compound also gave a cytotoxic concentration (CC50) in data set [3] (setting [4]) of over 50 µM.
`Nc1ccc(-c2cn(Cc3ccc([N+](=O)[O-])cc3)nn2)cc1` [Compound 23, 4-(1-(4-Nitrobenzyl)-1H-1,2,3-triazol-4-yl)aniline]: in data set [1] (MRC-5SV2 lung fibroblast cells), the CC50 at 3 days was over 50 µM. In data set [2], the IC50 was over 50 µM. The same compound registered a 50% cytotoxic concentration (CC50) in data set [3] (setting [4]) of over 50 µM.
Consider `CC(=O)N[C@H]1[C@H]([C@H](O)[C@H](O)CO)OC(C(=O)O)=C[C@@H]1N=C(N)N` [Zanamivir], for which the inhibition of trans-sialidase result in the data set on trans-sialidase (TcTS) was “weak inhibition of trans-sialidase in the millimolar range”.
For `O=C(Cn1cc(-c2ccc([N+](=O)[O-])cc2)nn1)NCc1ccc(O)cc1` [Compound 12, N-(4-Hydroxybenzyl)-2-(4-(4-nitrophenyl)-1H-1,2,3-triazol-1-yl)acetamide], in data set [1] (MRC-5SV2 lung fibroblast cells), the 50% cytotoxic concentration (CC50) at 3 days is over 50 µM. Further, the half-maximal inhibitory concentration (IC50) in data set [2] turned out to be 31 µM. This compound also had a cytotoxic concentration (CC50) in data set [3] (setting [4]) of over 50 µM.
In data set [1] (MRC-5SV2 lung fibroblast cells), `O=[N+]([O-])c1ccc(Cn2cc(-c3ccc(CO)cc3)nn2)cc1` [Compound 21, (4-(1-(4-Nitrobenzyl)-1H-1,2,3-triazol-4-yl)phenyl)methanol] gave a CC50 at 3 days of over 50 µM. Further, the IC50 in data set [2] is over 50 µM. The compound further had a cytotoxic concentration (CC50) in data set [3] (setting [4]) of over 50 µM.
As for `O=[N+]([O-])c1ccc(Cn2cc(-c3cccnc3)nn2)cc1` [Compound 22, 3-(1-(4-Nitrobenzyl)-1H-1,2,3-triazol-4-yl)pyridine], in data set [1] (MRC-5SV2 lung fibroblast cells), the midpoint of cytotoxicity, the CC50 at 3 days, lay at 5.06 µM. Besides, in data set [2], the IC50 is 4.17 µM. For the same compound, the CC50 in data set [3] (setting [4]) was over 50 µM.
In data set [1] (MRC-5SV2 lung fibroblast cells), `COc1cc(OC)cc(-c2cn(Cc3ccc([N+](=O)[O-])cc3)nn2)c1` [Compound 28, 4-(3,5-Dimethoxyphenyl)-1-(4-nitrobenzyl)-1H-1,2,3-triazole] had a 50% cytotoxic concentration (CC50) at 3 days of over 50 µM. For the same compound, the concentration for half-maximal inhibition (IC50) in data set [2] was over 50 µM. Further, the half-maximal cytotoxic concentration (CC50) in data set [3] (setting [4]) is over 50 µM.
The compound `COc1cccc(-c2cn(Cc3ccc([N+](=O)[O-])cc3)nn2)c1` [Compound 26, 4-(3-Methoxyphenyl)-1-(4-nitrobenzyl)-1H-1,2,3-triazole] registered a CC50 at 3 days in data set [1] (MRC-5SV2 lung fibroblast cells) of over 50 µM. Moreover, the half-maximal inhibitory concentration (IC50) in data set [2] was over 50 µM. The cytotoxic concentration (CC50) in data set [3] (setting [4]) is over 50 µM.
With `Cn1cncc1-c1cn(Cc2ccc([N+](=O)[O-])cc2)nn1` [Compound 25, 4-(1-Methyl-1H-imidazol-5-yl)-1-(4-nitrobenzyl)-1H-1,2,3-triazole], the half-maximal cytotoxic concentration (CC50) at 3 days in data set [1] (MRC-5SV2 lung fibroblast cells) is over 50 µM. Further, the IC50 in data set [2] is over 50 µM. In data set [3] (setting [4]), this compound returned a half-maximal cytotoxic concentration (CC50) of over 50 µM.
For the compound `O=C(Cn1cc(-c2ccc([N+](=O)[O-])cc2)nn1)NCc1cccnc1` [Compound 11, 2-(4-(4-Nitrophenyl)-1H-1,2,3-triazol-1-yl)-N-((pyridin-3-yl)methyl)acetamide], the CC50 at 3 days in data set [1] (MRC-5SV2 lung fibroblast cells) is over 50 µM. For the same compound, in data set [2], the IC50 was over 50 µM. The CC50 in data set [3] (setting [4]) was over 50 µM.

Values taken from PMC12120661, “Synthesis and Biological Evaluation of 4‑(4-Nitrophenyl)‑1H‑1,2,3-triazole Derivatives as Antitrypanosomal Agents” (ACS Omega, 2025).
